Patent US5304473A (Eli Lilly and Company, priority 1991, dated 1994)

Tests used:
[1] = tested on: human placental IGF-I receptor; test: Human placental IGF-I receptor binding assay (competition with 125I IGF-I); conditions: human placental membranes
Experimental: (§1) Metab., Vol.67, pgs. 194-197, the entire teaching of which is hereby incorporated by reference, except that the incubation was performed at 4° C. for 18 hours and membranes were collected on a Skatron Cell Harvester (commercially available from Skatron, Inc., Sterling, Va.). The glucose transport assay in rat adipocytes was performed in substantial accordance with the teachings of Kashwagi, M., et al., (1983) J. Clin, Invest., Vol.72, pgs. 1246-1254, the entire teaching of which is hereby incorporated by reference.

[2] = tested on: rat adipocytes; test: Glucose transport assay in rat adipocytes; type: cell-based; conditions: glucose uptake by adipocytes
Experimental: as §1

[3] = tested on: fasted, male, lean Sprague-Dawley rats; test: In vivo hypoglycemic effect in fasted rats; parameters: species or system rat; conditions: for Max. hypoglycemic effect (percent) 1 hour: 1 hour after subcutaneous administration; for Max. hypoglycemic effect (percent) 1 hour / Max. hypoglycemic effect (percent) 2 hours: percent change from zero time corrected for control group; for Max. hypoglycemic effect (percent) 1 hour / Max. hypoglycemic effect (percent) 2 hours / ED50 1 hour / ED50 2 hours: mean ± S.E.M.; for Max. hypoglycemic effect (percent) 2 hours: 2 hours after subcutaneous administration; for ED50 1 hour: half the maximal hypoglycemic activity 1 hour after subcutaneous administration; for ED50 2 hours: half the maximal hypoglycemic activity 2 hours after subcutaneous administration
Experimental: The data presented in Table III were obtained in tests carried out in fasted, male, lean Sprague-Dawley rats (Charles River Laboratories).
In vivo activity of ACB-proinsulins was determined in fasted rats. Male, lean Sprague-Dawley rats (obtained from Charles River Laboratories, Wilmington, Mass. 01887) 190-210 g bodyweight, were fasted for 16 hours. Ten animals were chosen at random and divided into two groups of five rats each. The control group received a subcutaneous saline injection (0.1 ml per 100 g bodyweight) while the experimental groups received a saline injection containing the test peptide. Blood (0.1 ml) was obtained from the tail of each rat for glucose determination (Sigma Diagnostics, glucose [Trinder], address) before administration of the peptide and again at 30 minutes, 1, 2, 3 and 4 hours after administration of the peptide.
The mean percent change from zero time plus or minus S.E.M. in blood glucose for control and treated groups of rats were calculated and the final results expressed by adjusting the change in the experimental group for the change in the control group. The effect of 5 to 7 different doses of each peptide was routinely determined.

[4] = tested on: human placental insulin receptor; test: Human placental insulin receptor binding assay (competition with 125I insulin); conditions: placental membrane insulin receptors
Experimental: as §1

ED50 IGF-I Receptor [1]	ED50 Insulin Receptor [4]	Substance	ED50 Glucose Transport [2]	Max. hypoglycemic effect (percent) 1 hour [3]	Max. hypoglycemic effect (percent) 2 hours [3]	ED50 1 hour [3]	ED50 2 hours [3]	time at which blood glucose levels returned to baseline ([3]; s.c. administration)	time of maximal hypoglycemic response after subcutaneous administration ([3]; s.c. administration)	Relative biological action to insulin 1 hour ([3]; 1 hour, subcutaneous, insulin = 100.0)	Relative biological action to insulin 2 hours ([3]; 2 hours, subcutaneous, insulin = 100.0)
0.45 nM		IGF-I: human IGF-I, reference ligand of the IGF-I receptor									
		Insulin: human insulin, two-chain protein hormone, reference	0.043 nM	59.0 ± 4.3%	45.7 ± 6.7%	1.0 ± 0.01 nM	1.6 ± 0.09 nM	3 to 4 h	1 h		
10000 nM	20.4 nM	Proinsulin: naturally occurring human (BCA) proinsulin, reference		55.1 ± 2.6%	61.0 ± 4.0%	91. ± 1.7 nM	8.2 ± 0.8 nM		2 h	14.3 ± 2.8	19.5 ± 1.8
